Entries after “also recorded” stand apart in the source; their conditions may differ. Where two headings read alike, the source gives them in different places.
Legend:
HeLa cells = assay: MTT cytotoxicity assay after the HIV replication protocol; type: cell-based, human; conditions: MTT cytotoxicity assay
HIV-1 IIIB strain [1] = assay: HIV-1 IIIB replication in HeLa cells, 48 hours pre-medication; type: cell-based; conditions: 48 hours pretreatment, read-out: IC50 of inhibition of HIV replication
HIV-1 IIIB strain [2] = assay: HIV-1 IIIB replication in HeLa cells, 24 hours pre-medication; type: cell-based
[3] = system: multi-drug resistant HIV MDR-769 strain; assay: HIV MDR 769 strain replication in HeLa cells, without pre-medication; type: cell-based
HIV-1 IIIB strain [4] = assay: HIV-1 IIIB replication in HeLa indicator cells (AV-Finder-HIV assay), no pre-medication; type: cell-based; conditions: for efficacy in reducing HIV-1 IIIB replication compared to AZT, ddI or 3TC: human cells
[5] = system: Y1 mouse adrenal tumor cells; assay: dbcAMP-induced 20á-hydroxyprogesterone synthesis in Y1 cells; type: cell-based
Experimental: Culture media were then changed and cells were stimulated with 1 mM dbcAMP and the treatment for 24 to 48 hours. […] The synthesis of 20 —OH progesterone and progesterone in Y1 and MA-10 cell media respectively were measured by RIA (Brown et al., 1992). H295R human adrenal tumor cells were seeded in 48-well plates at 10^5 cells/well and incubated for 24 hours. […] At the end of the incubation time period, cells were treated with 1 mM dbcAMP for 48 hours. Cortisol levels in the media were determined by radioimmunoassay as previously described (Amri et al., 1996).

[6] = no pre-medication, concentrations up to 1 μM

Cc1cn([C@H]2C[C@H](N=[N+]=[N-])[C@@H](CO)O2)c(=O)[nH]c1=O [AZT]
IC50 (HeLa cells): 161 µM
IC50 (HIV-1 IIIB strain [1]): 30 nM
inhibition of the replication (HIV-1 IIIB strain [2]; at 30 pM): < 30%
effect on HIV MDR 769 strain replication [3]: not effective; also recorded: ineffective

Nc1ccn([C@@H]2CS[C@H](CO)O2)c(=O)n1 [3TC]
inhibition of HIV-1 IIIB viral replication reached (HIV-1 IIIB strain [4]; no pre-medication, maximal inhibition reached (maximal concentrations)): 90%

CC1CN(C(=O)C(Cc2c[nH]c3ccccc23)NC(=O)c2ccc([N+](=O)[O-])cc2)CCN1C(=O)C1CC1 (stereo not drawn) [SP010, N-[2-(4-cyclopropanecarbonyl-3-methyl-piperazin-1-yl)-1-(1H-indol-3-yl-methyl)-2-oxo-ethyl]-4-nitro-benzamide]
effect on dbcAMP-induced 20á-hydroxyprogesterone production ([5]; Y1 cells): decreased in a dose-dependent manner
potency on cAMP-corticosteroid formation compared to procaine ([5]; even at a concentration as low as 1 μM): as potent as procaine
inhibition at 0.01 µM (HIV-1 IIIB strain [4]; Human immunodeficiency virus 1, IIIB, HeLa, no pre-medication, at 0.01 μM, read-out: strongest inhibition of viral replication): 55.6 ± 2.12%
efficacy in reducing HIV-1 IIIB replication compared to AZT, ddI or 3TC (HIV-1 IIIB strain [4]): efficacy higher than AZT, ddI or 3TC
inhibition of viral replication (HIV-1 IIIB strain [4]; [6]): 40%
potency compared to ddI (HIV-1 IIIB strain [4]; [6]): more potent that ddI
efficacy in inhibiting viral replication compared to ddI (HIV-1 IIIB strain [4]; within the range of 1 nM to 1 μM): higher efficacy than ddI
IC50 (HIV-1 IIIB strain [1]; Human immunodeficiency virus 1, IIIB, HeLa): 0.01 nM
concentration at the peak of the inhibitory activity (HIV-1 IIIB strain [2]): 0.03 nM
effect on HIV MDR 769 strain replication [3]: effectively blocked
maximal inhibition of MDR HIV strain replication [3]: 50%

O=c1[nH]cnc2c1ncn2[C@H]1CC[C@@H](CO)O1 [ddI]
strongest inhibition of viral replication (HIV-1 IIIB strain [4]; no pre-medication, at 0.01 μM): 26.37±26.11%
IC50 (HeLa cells): 89 µM

CCN(CC)CCNC(=O)c1ccc(N)cc1 [SP100, procainamide]
efficacy in reducing HIV-1 IIIB replication compared to AZT, ddI or 3TC (HIV-1 IIIB strain [4]): efficacy higher than AZT, ddI or 3TC
efficacy on viral replication compared to AZT (HIV-1 IIIB strain [2]): effective but at the same extent as AZT
effect on HIV MDR 769 strain replication [3]: effectively blocked

From US20060194814A1, “Benzamide compounds” (priority 2003, published 2006)
